Experimental data published in US10426772B2, “Use of ergot alkaloids as an anthelmintic agent” (priority 2016, dated 2019).

Tests used:
Sm.5HTR [1] = molecular target: T1, Sm.5HTR (Schistosoma mansoni, UniProt G4V5G4); type: cell-based; conditions: 10 μM for 30 minutes, washout, 5-HT response 1 hour later (FIGS. 11B-D)
Experimental: Colors correspond to drug identity in C&D. Data represent mean±s.e.m., n=3 (C-E).
To test putative irreversible antagonists, assays on suspension cells were performed one day post transfection. Cells in a T-75 flask were trypsinized (0.25% w/v) and transferred to a 14 mL tube, centrifuged at 300 RCF, and resuspended in HBSS supplemented with 0.1% BSA, 20 mM HEPES. Compounds were added at 10 μM, and after 30 minutes incubation at room temperature cells were centrifuged (300 RCF, 5 minutes) and resuspended in fresh media. This wash step was repeated, and cells were resuspended in HBSS supplemented with 0.1% BSA, 20 mM HEPES and GloSensor reagent. […]

Sm.5HTR [2] = molecular target: T1, Sm.5HTR; type: cell-based; conditions: for potency (IC50) at Sm.5HTR, lower right quadrant of FIG. 13: inhibition of cAMP generation
Experimental: (§1) HEK293 cells (ATCC CRL-1573.3) were cultured in DMEM supplemented with 10% fetal bovine serum (FBS), penicillin (100 units/mL), streptomycin (100 μg/mL), and L-glutamine (290 μg/mL). Cells were transiently transfected (ViaFect, Promega) as per the manufacturer's protocol at a density of 2×10^6 cells per T-25 cell-culture flask. Cells were transfected with plasmids encoding GloSensor (Promega) and either Sm.5HTR, (Smp_126730, GenBank accession number KF444051.1) or Sm.5HTRL (KX150867), both GPCRs being codon optimized for mammalian expression, or Hs.5HT7a (GenBank accession number NM_000872.4, R&D Systems) subcloned into pCS2(−). Cell culture reagents were from Invitrogen. Epitope tagged constructs were used to verify expression, and untagged constructs used for all luminescence assays.
(§2) For assays performed on adherent cells, HEK-293 cells were transferred one day post transfection to 96 well, solid white plates (Corning, cat #3917) coated with 0.01% poly-L-lysine (Sigma Aldrich) at a density of 5×10^4 cells/well in DMEM supplemented with 1% dialyzed FBS (Gibco). After overnight culture (37° C./5% CO2), media was decanted and replaced with 100 μL/well HBSS supplemented with 0.1% BSA, 20 mM HEPES (pH 7.4) and GloSensor™ reagent. Plates were allowed to equilibrate at room temperature for two hours prior to performing luminescence assays (GloMax-Multi Detection System plate reader, Promega). Conditions for individual assays were described as per figure legends. The standard assay to detect changes in cAMP utilized the F22 sensor in media supplemented with IBMX (200 μM). Ligands were added at a concentration of 20× per well for experiments (i.e., 5 μl of drug solution added to 100 μL of cells). […] For the resazurin reduction assay for cellular viability, cells were incubated with resazurin (final concentration, 10 μM) and tested ligands with fluorescence measurements (560 nm excitation/590 nm emission) made at 1.5 hours intervals.
(§3) The protocol for screening is shown schematically in FIG. 5A. HEK293 cells transiently transfected with either the human 5HT7 receptor (Hs.5HT7R) or the schistosome receptor (Sm.5HTR) were exposed to test ligands in a 96-well plate format. […] Luminescence was then read at a fixed time point (t=60 minutes, FIG. 5A). Hits were assigned as compounds that evoked a ≥50% decrease in luminescence output at the fixed time sampling point (FIG. 5B).

adult schistosomes = test: Egg laying assay, adult schistosome pairs in vitro; type: cell-based, Schistosoma mansoni; conditions: serotonin 100 μM, forskolin 100 μM, LSD 10 μM, nuciferine 10 μM, ergotamine 5 μM (FIG. 19F); eggs per worm pair/day over five days
From the text: (§4) Female Swiss Webster mice infected with S. mansoni cerceria (NMRI strain) were sacrificed 49 days post infection by CO2 euthanasia. Adult schistosomes were recovered by perfusion with a solution of 0.85% sodium chloride+0.75% sodium citrate and dissection of the mesenteric vasculature. Harvested schistosomes were washed in RPMI 1640 Medium with GlutaMAX+5% heat inactivated FBS (Gibco) and Penicillin-Streptomycin (final concentration 100 units/mL, ThermoFisher cat #15140122).
For egg laying assays, adult schistosomes were transferred to 24 well plates the day after harvesting from mice (5 worm pairs in 2 mL media per well). Eggs were counted under a stereomicroscope daily, after which worms were transferred to a new well with fresh drug containing media. Egg counts were recorded for five days, and data processed as the mean number of eggs laid per worm pair/day. Measurements of egg dimensions were quantified using the “analyze>measure” function in ImageJ to record the length and width of individual eggs.

Sm.5HTRL = Sm.5HTRL (Schistosoma mansoni, UniProt A0A173FEI8); test: GloSensor cAMP assay, HEK293 cells transiently transfected with Sm.5HTRL; type: cell-based
Chain of Sm.5HTRL (A0A173FEI8 entry or part of it): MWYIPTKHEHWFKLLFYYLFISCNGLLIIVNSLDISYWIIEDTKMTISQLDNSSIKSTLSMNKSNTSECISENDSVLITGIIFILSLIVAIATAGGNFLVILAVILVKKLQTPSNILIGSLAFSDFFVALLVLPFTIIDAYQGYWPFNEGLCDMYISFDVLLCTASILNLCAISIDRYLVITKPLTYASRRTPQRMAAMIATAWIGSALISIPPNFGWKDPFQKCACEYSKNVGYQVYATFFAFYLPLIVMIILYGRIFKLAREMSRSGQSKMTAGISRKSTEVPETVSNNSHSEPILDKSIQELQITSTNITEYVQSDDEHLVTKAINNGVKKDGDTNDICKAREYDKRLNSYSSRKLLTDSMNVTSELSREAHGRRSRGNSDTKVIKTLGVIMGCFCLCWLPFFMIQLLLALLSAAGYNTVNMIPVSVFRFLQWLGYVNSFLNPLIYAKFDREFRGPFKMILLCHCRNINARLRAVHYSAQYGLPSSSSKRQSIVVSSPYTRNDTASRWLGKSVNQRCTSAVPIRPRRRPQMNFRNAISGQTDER
Experimental: as §1, §2

adult S. mansoni = test: Movement assay of cultured adult S. mansoni (Example 2); type: cell-based; conditions: Schistosoma mansoni; for IC50: read-out: IC50, inhibition of serotonin evoked schistosome movement
From the text: as §4
For movement assays, worms were cultured 37° C./5% CO2 in vented 100×25 mm petri dishes (ThermoFisher cat #4031) containing 50 mL of media and used between 1-3 days after harvesting. Prior to assessing worm movement, individuals were transferred to a six well dish (4-5 individuals per well) containing 3 mL drug solution in RPMI 1640 supplemented with HEPES (25 mM) and MS (5%). Videos were recorded using a Zeiss Discovery v20 stereomicroscope and a QiCAM 12-bit cooled color CCD camera controlled by metamorph imaging software (version 7.8.1.0). 1 minute recordings were acquired at 4 frames per second, saved as a .TIFF stack, and movement was analyzed using ImageJ software as described in (PMID: 27187180, PMID: 27397763).

[3] = tested on: S. mansoni schistosomules; test: Schistosomule contractility assay; type: cell-based; conditions: Schistosoma mansoni
Experimental: FIGS. 14A-14F. […] Effects of selected ligands on schistosomules. […] A contractile cycle is defined when a deviation of ≥20% of the average body length (dashed lines) occurs.
Biomphalaria glabrata (M-line) snails exposed to Schistosoma mansoni miracidia (Strain PR-1) were obtained from BEI Resources (Cat. number NR-21961) and cercaria were shed following exposure to light (1.5 hours). Cercaria were manually transformed into schistosomula by vortexing (3×45 seconds, each separated by 3 minutes on ice) and tails were removed by gradient centrifugation (24 mL Percoll, 4 mL 10×EMEM, 1.5 ml penicillin-streptomycin, 1 mL of 1M HEPES in 0.85% NaCl, 9.5 ml distilled water) at 500 g/15 minutes at 4° C. Supernatant containing tails was discarded, and schistosomules were resuspended in Basch media and incubated (37° C., 5% CO2) overnight before conducting mobility assays. For contractility experiments, somules were incubated in 5-HT free Basch media to resolve a basal contractility rate. […] Schistosomules were incubated in 24 well plates (about 200 schistosomules/0.5 mL media per well) for 30 minutes (37° C./5% CO2) prior to acquiring videos of schistosome movement (1 minute recordings/well) using a Nikon Coolpix 5700 camera affixed to a Nikon Eclipse TS100 microscope (10× objective). The WrmTrck plugin for ImageJ was used to quantify worm mobility (El-Shehabi et al., 2012). Briefly, the major axis of each schistosomule body length was extracted from the raw output of WrmTrck and an average length was determined for the duration of the recording. Contractions were quantified by determining the number of episodes during which the worm body length deviated from the average by over 20%. S. mansoni protocols were approved by the Iowa State University Institutional Biosafety Committee.

Hs.5HT7R = molecular target: T2, Hs.5HT7R (Homo sapiens, UniProt P34969); test: GloSensor cAMP assay, HEK293 cells transiently transfected with Hs.5HT7R; type: cell-based; conditions: inhibition of cAMP generation
T2 construct: host or cells: HEK293 (ATCC CRL-1573.3), transient, pCS2(−), co-transfected with GloSensor
T2 sequence (P34969 1-445 isoform P34969-2): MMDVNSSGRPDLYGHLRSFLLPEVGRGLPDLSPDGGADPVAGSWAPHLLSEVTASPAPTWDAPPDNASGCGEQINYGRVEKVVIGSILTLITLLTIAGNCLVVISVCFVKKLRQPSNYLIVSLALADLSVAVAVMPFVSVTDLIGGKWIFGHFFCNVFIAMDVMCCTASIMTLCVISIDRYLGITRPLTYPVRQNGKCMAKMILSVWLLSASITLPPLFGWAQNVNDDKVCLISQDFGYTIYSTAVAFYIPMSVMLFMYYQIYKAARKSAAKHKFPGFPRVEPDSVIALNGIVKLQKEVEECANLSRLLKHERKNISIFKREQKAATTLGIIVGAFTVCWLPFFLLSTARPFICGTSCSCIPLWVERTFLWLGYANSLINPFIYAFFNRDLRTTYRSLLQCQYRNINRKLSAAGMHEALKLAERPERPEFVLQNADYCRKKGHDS
Experimental: as §1, §2, §3

Sm.5HTR [4] = molecular target: Sm.5HTR (Schistosoma mansoni, UniProt A0A173FEI8); test: cell-based
Chain of Sm.5HTR (Schistosoma mansoni, UniProt A0A173FEI8) (A0A173FEI8 entry or part of it): as the sequence (A0A173FEI8 entry or part of it) above
Experimental: HEK293 cells (ATCC CRL-1573.3) were cultured in growth media consisting of DMEM supplemented with GlutaMAX (Gibco cat #10566016)+10% heat inactivated fetal bovine serum and penicillin-streptomycin (100 units/mL, ThermoFisher). Stable cell lines for the pGloSensor-22F cAMP Plasmid (Promega) and schistosome 5HTRs in pcDNA3.1(−) were selected with hygromycin (200 μg/mL) and G418 (400 μg/mL). The correct identity of each stably expressed sequence was verified by isolating total RNA from each stable line (TRIzol Reagent, Ambion) and amplifying the sequence of interest with gene specific primers flanking the 5′ and 3′ regions of the cds (SuperScript® III One-Step RT-PCR System, Invitrogen). PCR products were ligated into a TA cloning vector (pGEM-T Easy, Promega) and sequenced.
HEK293 lines stably expressing both the 22F cAMP sensor and Sm.5HTR were cultured in growth media supplemented with 10% dialyzed FRS. For cAMP assays in 96 well format, cells cultured in T-75 flasks were trypsinized (TrypLE Express, Gibco) and plated in solid white 96 well plates (Costar cat #3917) the day prior to assay at a density of 2.5×10^4 cells/well. The following day media was removed and replaced with assay buffer consisting of HBSS buffered with HEPES (20 mM, pH 7.4)+BSA (0.1% w/v) and D-luciferin sodium salt (1 mg/mL, Gold Biotechnology). Plates were equilibrated at room temperature for 1 hour, at which point 3-Isobutyl-1-methylxanthine (IBMX 200 μM, Sigma Aldrich) was added. Plates were equilibrated a further 30 minutes prior to test compound addition. […] Readings performed in 384 well format were modified so that cells were assayed in suspension. Cells were grown to 70% confluence in T-75 flasks, trypsinized and pelleted (300 RCF×5 minutes). Media was removed and cells were resuspended in 25 mL assay buffer supplemented with IBMX (200 μM). A 96 channel semi-automated pipet (Eppendorf epMotion 96) delivered 55 μL of cell suspension per well (5000 cells/well) into solid white 384 plates (Corning 3574).

T1 sequence (G4V5G4 entry or part of it): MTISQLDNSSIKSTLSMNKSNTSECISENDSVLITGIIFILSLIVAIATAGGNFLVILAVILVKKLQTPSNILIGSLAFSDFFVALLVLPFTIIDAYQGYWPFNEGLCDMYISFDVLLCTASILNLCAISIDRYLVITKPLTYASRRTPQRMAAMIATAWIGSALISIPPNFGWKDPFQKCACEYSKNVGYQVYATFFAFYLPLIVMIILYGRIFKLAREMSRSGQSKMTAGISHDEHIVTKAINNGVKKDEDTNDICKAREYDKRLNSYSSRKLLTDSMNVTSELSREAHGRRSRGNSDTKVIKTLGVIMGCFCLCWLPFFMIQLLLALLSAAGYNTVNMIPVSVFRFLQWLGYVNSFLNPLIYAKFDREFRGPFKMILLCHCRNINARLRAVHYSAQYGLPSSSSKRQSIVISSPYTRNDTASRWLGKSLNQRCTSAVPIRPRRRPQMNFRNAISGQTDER

CSc1ccc2c(c1)C(N1CCN(C)CC1)Cc1ccccc1S2 (stereo not drawn) [methiothepin]
persistence of Sm.5HTR inhibition after antagonist wash-out (Sm.5HTR [1]): long-lasting inhibition
antagonism of 5-HT stimulated cAMP generation (Sm.5HTR [2]; methiothepin 10 μM preincubation, 5-HT 10 μM, IBMX 200 μM (FIG. 2G)): antagonism of 5-HT stimulated cAMP generation

NCCc1c[nH]c2ccc(O)cc12 [5-HT, Serotonin]
decrease of egg laying (adult schistosomes): 83%
EC50 (Sm.5HTRL; 5-HT dose response, FIG. 2H, read-out: EC50, activation of Sm.5HTRL): 200 ± 30 nM
greater sensitivity of Sm.5HTRL compared with Sm.5HTR (Sm.5HTRL; ratio of 5-HT EC50): about 10 fold
EC50 (adult S. mansoni; FIG. 19B, read-out: EC50, stimulation of adult schistosome movement): 52000 ± 2000 nM

COc1cc2c(cc1OC)C1CC(=O)C(CC(C)C)CN1CC2 (stereo not drawn) [tetrabenazine]
inhibition at 100 µM ([3]; read-out: inhibition of 5-HT evoked contractility): ~50%
selectivity Sm.5HTR versus Hs.5HT7R (IC50 (Hs.5HT7R)/IC50 (Sm.5HTR)), in words (Sm.5HTR [2]): selectivity for Sm.5HTR retained
potency (IC50) at Sm.5HTR, lower right quadrant of FIG. 13 (Sm.5HTR [2]): sub-μM potency
potency (IC50) at Hs.5HT7R, lower right quadrant of FIG. 13 (Hs.5HT7R): supra-μM potency

CC(C)C[C@H]1C(=O)N2CCC[C@H]2[C@]2(O)O[C@](NC(=O)[C@@H]3C=C4c5cccc6[nH]c(Br)c(c56)C[C@H]4N(C)C3)(C(C)C)C(=O)N12 [bromocriptine]
IC50 (adult S. mansoni): 251 ± 67 nM
IC50 ([3]; read-out: IC50, inhibition of 5-HT evoked contractions): ≤ 1000 nM
higher selectivity for the parasitic 5-HT receptor (Sm.5HTR [2]; Sm.5HTR over Hs.5HT7R): about 10 fold
potency (IC50) at Sm.5HTR, lower right quadrant of FIG. 13 (Sm.5HTR [2]): sub-μM potency
potency (IC50) at Hs.5HT7R, lower right quadrant of FIG. 13 (Hs.5HT7R): supra-μM potency

CN1C[C@H](CNC(=O)OCc2ccccc2)C[C@@H]2c3cccc4c3c(cn4C)C[C@H]21 [metergoline]
persistence of Sm.5HTR inhibition after antagonist wash-out (Sm.5HTR [1]): long-lasting inhibition
agonist efficacy at Sm.5HTR, in words (Sm.5HTR [2]; FIG. 10A): no efficacy
Kb (Sm.5HTR [2]; antagonism of 5-HT evoked cAMP accumulation, FIG. 10F, read-out: affinity constants (KB), Schild regression analysis): 4530 nM
nature of antagonism: right-shift in the 5-HT dose-response relationship (Sm.5HTR [2]; increasing doses of ligand, FIGS. 10B-D): competitive antagonism

Cc1nc2n(c(=O)c1CCN1CCC(c3noc4cc(F)ccc34)CC1)CCCC2 [risperidone]
persistence of Sm.5HTR inhibition after antagonist wash-out (Sm.5HTR [1]): long-lasting inhibition

CCN(CC)C(=O)[C@@H]1C=C2c3cccc4[nH]c(Br)c(c34)C[C@H]2N(C)C1 [BOL-148, 2-bromo-lysergic acid diethylamide]
IC50 (Sm.5HTR [4]; 5-HT 500 nM, read-out: Sm.5HTR IC50 (antagonist)): 100 ± 20 nM
agonist activity at Sm.5HTR, in words (Sm.5HTR [4]; FIG. 18C): Agonist activity is eliminated
decrease of egg laying (adult schistosomes): no effect
IC50 (adult S. mansoni): 29 ± 23 nM
